{"source": "paper PMC5066224", "about": "“A Novel Resveratrol Based Tubulin Inhibitor Induces Mitotic Arrest and Activates Apoptosis in Cancer Cells” (Scientific Reports, 2016)", "tested_on": "Tubulin polymerisation in CEM cells", "test": "Cell based microtubule assembly (Tubulin polymerisation) assay", "set-up": "species or system Human", "settings": "CEM, 2, 5 and 10 μM, 24 h, pellet fraction α-Tubulin immunoblot", "method": "Separation of insoluble polymerized Tubulin from soluble Tubulin dimers was performed as described. In brief, CEM cells (1 × 10^6) were treated with 2, 5 and 10 μM of SS28 for 24 h. Cells were harvested and washed with PBS before adding polymerization lysate buffer containing 20 mM Tris-HCl (pH 6.8), 1 mM MgCl2, 2 mM EGTA, […], 1 mM phenylmethylsulfonyl fluoride, 1 mM orthovanadate and 0.5% NP-40. After centrifugation of the lysates at 15,000 × g for 10 min at 4 °C, the pellets were resuspended in SDS-PAGE loading buffer and dissolved by heating at 95 °C for 10 min. α-Tubulin was then immunoblotted for the pellet fraction containing polymerized microtubules and supernatants containing depolymerised microtubules were equalised and resolved on 8% SDS PAGE.", "data": [{"smiles": "COc1cc(/C=C/c2ccc(C)cc2)cc(OC)c1OC", "note": "[SS28, (E)-1,2,3-trimethoxy-5-(4-methylstyryl)benzene]", "values": [{"measurement": "concentration from which Tubulin polymerisation was inhibited", "value": "≥ 2", "unit": "µM"}]}]}
